Test results from paper PMC8027081, “Structural Basis of VSIG3: The Ligand for VISTA” (Frontiers in Immunology, 2021).

Legend:
human VSIG3-ECD = target: T1, human VSIG3-ECD (Homo sapiens, UniProt Q5DX21); experiment: microscale thermophoresis; type: binding; settings: room temperature, 30 min; RED-NHS labelled protein
T1 construct: gene IGSF11; extracellular domain (IgV + IgC2), signal peptide (22 aa) removed, His-tagged; RED-NHS labelled for MST; dimer in crystal
T1 sequence (Q5DX21 23-241): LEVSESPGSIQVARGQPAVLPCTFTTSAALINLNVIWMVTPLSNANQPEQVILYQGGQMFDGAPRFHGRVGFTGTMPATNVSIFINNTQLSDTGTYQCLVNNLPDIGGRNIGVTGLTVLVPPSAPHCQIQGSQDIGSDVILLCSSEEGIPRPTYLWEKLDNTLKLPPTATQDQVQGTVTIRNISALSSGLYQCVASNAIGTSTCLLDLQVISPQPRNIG

[1] = target: the molecule itself; experiment: crystal structure; hanging drop vapor diffusion, 4°C, 0.1 M sodium citrate tribasic dihydrate pH 5.6, 0.01 M iron(III) chloride, 10% Jeffamine M-600; VSIG3 at 3 mg/mL; 2.64 Å

O=C(CCn1c(SCC(=O)NC2CCCC2)nc2ccccc2c1=O)NC1CCCCC1 [K284-3046] showed a Kd (human VSIG3-ECD) of 11.6 ± 9.12 µM.

B1: human VSIG3 extracellular domain (residues 23-241) expressed in E. coli, refolded (domain or fragment, UniProt Q5DX21 23-241, looked up)
chain: T1 sequence (Q5DX21 23-241)
notes: VSIG3 (IgSF11), human, UniProt Q5DX21, residues 23-241 (extracellular domain without the 22-residue signal peptide); No PDB id is printed; also called VSIG3-ECD; IgSF11; not shown: His tag (from the vector pET28a)
With B1 the “stoichiometry N” value [1] was 2.
